# From paper PMC8154229 (ACS Omega, 2021)
# Molecular target: human H1R (Homo sapiens, UniProt P35367)
# Assay type: binding
# Details: between 13 and 17
# Chain of human H1R (P35367 whole entry): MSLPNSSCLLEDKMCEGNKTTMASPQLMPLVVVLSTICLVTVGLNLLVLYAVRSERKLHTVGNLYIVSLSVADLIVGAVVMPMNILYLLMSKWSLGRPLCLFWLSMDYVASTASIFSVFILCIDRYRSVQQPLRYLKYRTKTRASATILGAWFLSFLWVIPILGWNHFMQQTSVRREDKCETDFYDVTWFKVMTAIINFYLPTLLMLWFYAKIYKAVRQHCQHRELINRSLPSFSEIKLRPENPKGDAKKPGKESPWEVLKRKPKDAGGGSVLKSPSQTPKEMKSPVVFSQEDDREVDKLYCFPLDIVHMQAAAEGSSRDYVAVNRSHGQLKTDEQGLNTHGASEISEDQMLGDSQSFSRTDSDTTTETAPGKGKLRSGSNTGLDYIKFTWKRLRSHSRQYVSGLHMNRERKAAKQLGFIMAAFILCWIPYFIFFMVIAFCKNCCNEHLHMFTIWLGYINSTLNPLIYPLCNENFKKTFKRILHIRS
compound,measurement,value
"CN1CCC(=C2c3ccccc3CCc3ccccc32)CC1 [Compound 13, 4-(10,11-Dihydro-5H-dibenzo[a,d][7]annulen-5-ylidene)-1-methylpiperidine]",fold difference in affinity,100 fold
